Assays:
CCKB receptor = molecular target: T1, CCKB receptor (Mus musculus, UniProt P56481); experiment: CCKB receptor radioligand binding assay in mouse cortical membranes; conditions: [125I]-CCK8(S) 200 pM, 150 min at 21±3°; for Ki: read-out: CCKB pKi (converted)
T1 construct: The whole brains from male mice (CD1 22-25 g; Charles River) were removed; from tissue; host or cells: cerebral cortex membranes of male CD1 mice
T1 sequence (P56481 1-453): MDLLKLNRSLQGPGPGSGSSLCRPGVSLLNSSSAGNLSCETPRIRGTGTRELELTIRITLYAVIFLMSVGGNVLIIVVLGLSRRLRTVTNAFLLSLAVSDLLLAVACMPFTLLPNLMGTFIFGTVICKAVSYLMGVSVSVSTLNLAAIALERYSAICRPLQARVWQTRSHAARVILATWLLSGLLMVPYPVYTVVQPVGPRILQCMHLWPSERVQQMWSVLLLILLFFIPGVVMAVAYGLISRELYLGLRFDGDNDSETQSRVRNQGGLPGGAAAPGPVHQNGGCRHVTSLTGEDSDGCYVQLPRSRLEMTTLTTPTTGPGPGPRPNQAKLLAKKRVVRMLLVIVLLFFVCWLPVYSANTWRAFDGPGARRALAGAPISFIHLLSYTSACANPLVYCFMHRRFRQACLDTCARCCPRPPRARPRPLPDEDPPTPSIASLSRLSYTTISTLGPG
Summary of the method: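 Bound radioactivity was gamma-counted after rapid GF/B filtration and cold 50 mM Tris-HCl (pH 7.4) washes. The tissue was cerebral cortex from male CD1 mice, prepared as twice-centrifuged membranes in pH 7.2 HEPES/NaCl/KCl/MgCl2/EDTA buffer with bacitracin at 20 mg/ml original wet weight.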

gastrin receptor = molecular target: T2, gastrin receptor (Rattus norvegicus, UniProt P30553); experiment: gastrin antagonist activity in immature rat stomach assay (pentagastrin dose-response, acid secretion); conditions: isolated immature rat stomach, cumulative pentagastrin dose-response curves; for Kb: read-out: Gastrin pKb (converted)
T2 construct: The stomach was excised and flushed with ca. 1 ml of unbuffered physiological saline solution; from tissue; host or cells: isolated whole stomach of immature rats (ca. 21 days old)
T2 sequence (P30553 1-452): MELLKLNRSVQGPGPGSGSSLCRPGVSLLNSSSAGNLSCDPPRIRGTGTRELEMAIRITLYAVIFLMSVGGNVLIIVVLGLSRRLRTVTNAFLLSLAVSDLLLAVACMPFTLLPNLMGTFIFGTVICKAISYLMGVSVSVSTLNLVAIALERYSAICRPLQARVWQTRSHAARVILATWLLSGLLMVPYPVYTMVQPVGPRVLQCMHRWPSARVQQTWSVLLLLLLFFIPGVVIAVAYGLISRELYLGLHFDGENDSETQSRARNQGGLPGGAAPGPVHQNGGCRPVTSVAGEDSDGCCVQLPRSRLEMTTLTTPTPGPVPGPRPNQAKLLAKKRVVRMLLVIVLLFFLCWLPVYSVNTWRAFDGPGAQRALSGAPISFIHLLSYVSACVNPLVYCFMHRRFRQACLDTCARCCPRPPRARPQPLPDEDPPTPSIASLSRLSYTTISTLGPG
Summary of the method: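 Isolated, lumen-perfused stomach from immature rats (33-50 g, ca. 21 days) in a 37° organ bath with 3×10^−8 M 5-methylfurmethide, gassed 95% O2/5% CO2. Compound added serosally after 120 min stabilisation; cumulative pentagastrin dose-response curves begun 60 min later, acid secretion followed by perfusate pH.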

Row | Compound | Ki (CCKB receptor) [nM] | Kb (gastrin receptor) [nM] | CCKB pKi (CCKB receptor) | Gastrin pKb (gastrin receptor)
1 | 5-[(2-Cycloheptylmethyl--phenyl-1H-pyrrole-3-carbonyl)-amino]-isophthalic Acid [Example 13] |  |  | 6.44 | 6.21
2 | CC1(C)C2CC[C@]1(C)C(c1nc(C(=O)Nc3cccc(C(=O)O)c3)c(CCC34CC5CC(CC(C5)C3)C4)[nH]1)C2 (mixture of isomers) [Example 205, 3-{[5-(2-Adamantan-1-yl-ethyl)-2-[(1R,2RS)-1,7,7-trimethyl-bicyclo[2.2.1]hept-2-yl]-1H-imidazole-4-carbonyl]-amino}-benzoic Acid] | 47.9 | 8.32 |  | 
3 | CC(Cc1[nH]c(C2CCCCC2)nc1C(=O)Nc1cccc(C(=O)O)c1)C12CC3CC(CC(C3)C1)C2 (racemic) [Example 132, (±)-3-{[5-(2-Adamantan-1-yl-propyl)-2-cyclohexyl-1H-imidazole-4-carbonyl]-amino}-benzoic Acid] | 42.7 | 8.13 |  | 
4 | Cc1ccc(NC(=O)c2nc(C3CC4CCC3C4)[nH]c2CCC23CC4CC(CC(C4)C2)C3)cc1C(=O)O (racemic) [Example 209, (±)-endo-5-{[5-(2-Adamantan-1-yl-ethyl)-2-bicyclo[2.2.1]hept-2-yl-1H-imidazole-4-carbonyl]-amino}-2-methyl-benzoic Acid] | 2.09 | 1.1 |  | 
5 | CC(C(=O)O)c1cccc(NC(=O)c2nc(C3CCCCC3)[nH]c2CCC23CC4CC(CC(C4)C2)C3)c1 (racemic) [Example 255, (±)-2-(3-{[5-(2-Adamantan-1-yl-ethyl)-2-cyclohexyl-1H-imidazole-4-carbonyl]-amino}-phenyl)-propionic Acid] | 1.41 | 178 |  | 
6 | O=C(O)c1cccc(NC(=O)c2nc(-c3ccccc3)[nH]c2CC2CCCCCC2)c1 [Example 26, 3-[(5-Cycloheptylmethyl-2-phenyl-1H-imidazole-4-carbonyl)-amino]-benzoic Acid] | 1480 | 407 |  | 
7 | O=C(O)c1cccc(NC(=O)c2nc(-c3ccccc3C(F)(F)F)[nH]c2CCC2CCCCCC2)c1 [Example 40, 3-{[5-(2-Cycloheptyl-ethyl)-2-(2-trifluoromethyl-phenyl)-1H-imidazole-4-carbonyl]-amino}-benzoic Acid] | 933 | 204 |  | 
8 | COc1cccc(-c2nc(C(=O)Nc3cccc(C(=O)O)c3)c(CCC3CCCCCC3)[nH]2)c1 [Example 42, 3-{[5-(2-Cycloheptyl-ethyl)-2-(3-methoxy-phenyl)-1H-imidazole-4-carbonyl]-amino}-benzoic Acid] | 1510 | 50.1 |  | 
9 | O=C(O)c1cccc(NC(=O)c2nc(-c3ccccc3F)[nH]c2CCC2CCCCCC2)c1 [Example 43, 3-{[5-(2-Cycloheptyl-ethyl)-2-(2-fluoro-phenyl)-1H-imidazole-4-carbonyl]-amino}-benzoic Acid] | 851 | 63.1 |  | 
10 | Cc1ccccc1-c1nc(C(=O)Nc2ccc(F)c(C(=O)O)c2F)c(CCC23CC4CC(CC(C4)C2)C3)[nH]1 [Example 248, 3-{[5-(2-Adamantan-1-yl-ethyl)-2-o-tolyl-1H-imidazole-4-carbonyl]-amino}-2,6-difluoro-benzoic Acid] | 25.7 |  |  | 

Further lines, with some results ahead:

Row | Ki (CCKB receptor) [nM] | Kb (gastrin receptor) [nM] | Compound | CCKB pKi (CCKB receptor) | Gastrin pKb (gastrin receptor)
11 | 31.6 | 2.24 | O=C(O)c1cccc(NC(=O)c2nc(C3CC4CCC3C4)[nH]c2CCC23CC4CC(CC(C4)C2)C3)c1 (racemic) [Example 114, (±)-endo-3-{[5-(2-Adamantan-1-yl-ethyl)-2-bicyclo[2.2.1]hept-2-yl-1H-imidazole-4-carbonyl]-amino}-benzoic Acid] |  | 
12 | 25.7 | 6.31 | O=C(O)c1cccc(NC(=O)c2nc(C3CC4CCC3C4)[nH]c2CCC23CC4CC(CC(C4)C2)C3)c1 (racemic) [Example 115, (±)-exo-3-{[5-(2-Adamantan-1-yl-ethyl)-2-bicyclo[2.2.1]hept-2-yl-1H-imidazole-4-carbonyl]-amino}-benzoic Acid] |  | 
13 | 13.5 | 2.14 | O=C(O)c1cccc(NC(=O)c2nc(C3CC4C=CC3C4)[nH]c2CCC23CC4CC(CC(C4)C2)C3)c1 (racemic) [Example 116, (±)-endo-3-{[5-(2-Adamantan-1-yl-ethyl)-2-bicyclo[2.2.1]hept-5-ene-2-yl-1H-imidazole-4-carbonyl]-amino}-benzoic Acid] |  | 
14 | 36.3 | 3.63 | O=C(O)c1cccc(NC(=O)c2nc(C3CC4C=CC3C4)[nH]c2CCC23CC4CC(CC(C4)C2)C3)c1 (racemic) [Example 117, (±)-exo-3-{[5-(2-Adamantan-1-yl-ethyl)-2-bicyclo[2.2.1]hept-5-ene-2-yl-1H-imidazole-4-carbonyl]-amino}-benzoic Acid] |  | 
15 | 191 | 468 | O=C(O)c1cc(NC(=O)c2cc(-c3ccccc3)[nH]c2CC23CC4CC(CC(C4)C2)C3)cc(C(=O)O)c1 [Example 1, 5-[(2-Adamantan-1-ylmethyl-5-phenyl-1H-pyrrole-3-carbonyl)-amino]-isophthalic Acid] |  | 
16 | 87.1 | 1620 | O=C(O)c1cc(NC(=O)c2cc(-c3ccc4ccccc4c3)[nH]c2CC23CC4CC(CC(C4)C2)C3)cc(C(=O)O)c1 [Example 4, 5-[(2-Adamantan-1-ylmethyl-5-naphthalen-2-yl-1H-pyrrole-3-carbonyl)-amino]-isophthalic Acid] |  | 
17 | 87.1 | 1620 | O=C(O)c1cc(NC(=O)c2cc(-c3ccc4ccccc4c3)[nH]c2CC2CCCCCC2)cc(C(=O)O)c1 [Example 11, 5-[(2-Cycloheptylmethyl-5-naphthalene-2-yl-1H-pyrrole-3-carbonyl)-amino]-isophthalic Acid] |  | 
18 | 1120 | 1000 | O=C(O)c1cccc(NC(=O)c2cc(-c3ccccc3)[nH]c2CC2CCCCCC2)c1 [Example 12, 3-[(2-Cycloheptylmethyl-5-phenyl-1H-pyrrole-3-carbonyl)-amino]-benzoic Acid] |  | 
19 | 1000 | 479 | O=C(O)c1cc(NC(=O)c2[nH]c(-c3ccccc3)nc2CC2CCCCCC2)cc(C(=O)O)c1 [Example 24, 5-[(5-Cycloheptylmethyl-2-phenyl-1H-imidazole-4-carbonyl)-amino]-isophthalic Acid] |  | 
20 | 209 | 1260 | O=C(O)c1cc(NC(=O)c2[nH]c(-c3ccccc3)nc2CC23CC4CC(CC(C4)C2)C3)cc(C(=O)O)c1 [Example 37, 5-[(5-Adamantan-1-ylmethyl-2-phenyl-1H-imidazole-4-carbonyl)-amino]-isophthalic Acid] |  | 
21 | 646 | 2510 | O=C(O)c1cc(NC(=O)c2[nH]c(-c3ccccc3)nc2CCC23CC4CC(CC(C4)C2)C3)cc(C(=O)O)c1 [Example 46, 5-{[5-(2-Adamantan-1-yl-ethyl)-2-phenyl-1H-imidazole-4-carbonyl]-amino}-isophthalic Acid] |  | 
22 | 251 | 234 | O=C(O)c1cccc(NC(=O)c2[nH]c(-c3ccccc3)nc2CCC23CC4CC(CC(C4)C2)C3)c1 [Example 47, 3-{[5-(2-Adamantan-1-yl-ethyl)-2-phenyl-1H-imidazole-4-carbonyl]-amino}-benzoic Acid] |  | 
23 | 331 | 26.3 | O=C(O)c1cccc(NC(=O)c2nc(-c3ccccc3F)[nH]c2CCC23CC4CC(CC(C4)C2)C3)c1 [Example 50, 3-{[5-(2-Adamantan-1-yl-ethyl)-2-(2-fluoro-phenyl)-1H-imidazole-4-carbonyl]-amino}-benzoic Acid] |  | 
24 | 182 |  | COc1ccc(NC(=O)c2nc(-c3ccccc3C)[nH]c2CCC23CC4CC(CC(C4)C2)C3)cc1C(=O)O [Example 244, 5-{[5-(2-Adamantan-1-yl-ethyl)-2-o-tolyl-1H-imidazole-4-carbonyl]-amino}-2-methoxy-benzoic Acid] |  | 
25 | 302 |  | Cc1cc(NC(=O)c2nc(-c3ccccc3C)[nH]c2CCC23CC4CC(CC(C4)C2)C3)cc(C(=O)O)c1 [Example 247, 3-{[5-(2-Adamantan-1-yl-ethyl)-2-o-tolyl-1H-imidazole-4-carbonyl]-amino}-5-methyl-benzoic Acid] |  | 
